In PubChem BioAssay AID248 (DTP/NCI, 2004):
Where “and” joins values, the source holds several entries; their conditions need not be identical. Identical values can stand only once. Inconclusive results and toxic doses are left out. Rule as the data show it: active = T/C of 150% or more; inactive = T/C below 125%.

System: L1210 leukemia ip in BDF1 mice, survival T/C
Assay: NCI In Vivo Anticancer Drug Screen. Data for tumor model L1210 Leukemia (intraperitoneal) in B6D2F1 (BDF1) mice
Details: endpoint: mean survival time, higher = longer survival
How it was run: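 Transplantable tumor model; survival measured in treated vs vehicle control mice. Value = treated/control.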

[1] = dose: 100.0 mg/kg/injection, schedule: Q04DX003 (ip), vehicle: saline with Tween-80
[2] = dose: 200.0 mg/kg/injection, schedule: Q04DX003 (ip), vehicle: saline with Tween-80
[3] = dose: 400.0 mg/kg/injection, schedule: Q04DX003 (ip), vehicle: saline with Tween-80
[4] = dose: 100.0 mg/kg/injection, schedule: Q04DX003 (ip), vehicle: Klucel (hydroxypropylcellulose) (HPC)
[5] = dose: 200.0 mg/kg/injection, schedule: Q04DX003 (ip), vehicle: Klucel (hydroxypropylcellulose) (HPC)
[6] = dose: 400.0 mg/kg/injection, schedule: Q04DX003 (ip), vehicle: Klucel (hydroxypropylcellulose) (HPC)
[7] = dose: 50.0 mg/kg/injection, schedule: Q01DX009 (ip), vehicle: saline with Tween-80
[8] = dose: 100.0 mg/kg/injection, schedule: Q01DX009 (ip), vehicle: saline with Tween-80
[9] = dose: 200.0 mg/kg/injection, schedule: Q01DX009 (ip), vehicle: saline with Tween-80
[10] = dose: 100.0 mg/kg/injection, schedule: Q01DX009 (ip), vehicle: Klucel (hydroxypropylcellulose) (HPC)
[11] = dose: 200.0 mg/kg/injection, schedule: Q01DX009 (ip), vehicle: Klucel (hydroxypropylcellulose) (HPC)
[12] = dose: 400.0 mg/kg/injection, schedule: Q01DX009 (ip), vehicle: Klucel (hydroxypropylcellulose) (HPC)

Measured: T/C

O=S1(=O)c2ccc(cc2)N=CC=Nc2ccc1cc2
inactive: [1] 92 % of control | [2] 90 % of control | [3] 89 % of control

Cc1nc(C(N)=O)c(=O)[nH]c1C
inactive: dose: 6.25 mg/kg/injection, schedule: Q04DX003 (ip), vehicle: saline 95 % of control | dose: 12.5 mg/kg/injection, schedule: Q04DX003 (ip), vehicle: saline 97 % of control | dose: 25.0 mg/kg/injection, schedule: Q04DX003 (ip), vehicle: saline 94 % of control | dose: 50.0 mg/kg/injection, schedule: Q04DX003 (ip), vehicle: saline 101 % of control | [4] 102 % of control | [5] 100 % of control | [6] 100 % of control

Cc1ccc(NC(=O)Nc2ccc(C)c(NC(=O)Nc3ccc(C)c(Cl)c3)c2)cc1Cl
inactive: [7] 90 % of control | [8] 88 % of control | [1] 88 % of control | [9] 94 % of control

CCCCCCCC/C=C\CCCCCCCCSC#N
inactive: dose: 25.0 mg/kg/injection, schedule: Q04DX002 (ip), vehicle: saline with Tween-80 97 % of control | dose: 50.0 mg/kg/injection, schedule: Q04DX002 (ip), vehicle: saline with Tween-80 106 % of control | [8] 97 % of control | dose: 100.0 mg/kg/injection, schedule: Q04DX002 (ip), vehicle: saline with Tween-80 100 % of control | [9] 97 % of control | dose: 200.0 mg/kg/injection, schedule: Q04DX002 (ip), vehicle: saline with Tween-80 103 % of control | dose: 400.0 mg/kg/injection, schedule: Q04DX002 (ip), vehicle: saline with Tween-80 87 % of control

CC(C)(C)NSc1nc2ccccc2s1
inactive: [7] 97 % of control | [8] 94 % of control | [9] 98 % of control

Brc1ccc2oc3ccccc3c2c1
inactive: dose: 50.0 mg/kg/injection, schedule: Q04DX002 (ip), vehicle: Klucel (hydroxypropylcellulose) (HPC) 92 % of control | dose: 100.0 mg/kg/injection, schedule: Q04DX002 (ip), vehicle: Klucel (hydroxypropylcellulose) (HPC) 93 % of control | dose: 100.0 mg/kg/injection, schedule: Q04DX002 (ip), vehicle: saline 104 % of control | dose: 200.0 mg/kg/injection, schedule: Q04DX002 (ip), vehicle: Klucel (hydroxypropylcellulose) (HPC) 96 % of control | dose: 400.0 mg/kg/injection, schedule: Q04DX002 (ip), vehicle: Klucel (hydroxypropylcellulose) (HPC) 100 % of control | dose: 400.0 mg/kg/injection, schedule: Q04DX002 (ip), vehicle: saline 93 % of control

O=[N+]([O-])c1ccc(F)cc1F
inactive: dose: 22.0 mg/kg/injection, schedule: Q01DX009 (ip), vehicle: Klucel (hydroxypropylcellulose) (HPC) 103 % of control | dose: 43.7 mg/kg/injection, schedule: Q01DX009 (ip), vehicle: Klucel (hydroxypropylcellulose) (HPC) 105 % of control | dose: 87.5 mg/kg/injection, schedule: Q01DX009 (ip), vehicle: Klucel (hydroxypropylcellulose) (HPC) 97 % of control and 114 % of control

O=C(CCN1CC=C(c2ccccc2)CC1)NCc1ccccc1
inactive: [8] 95 % of control | [1] 98 % of control | [9] 93 % of control | [2] 100 % of control | dose: 400.0 mg/kg/injection, schedule: Q01DX009 (ip), vehicle: saline with Tween-80 95 % of control | [3] 100 % of control

O=C(O)c1cc(I)c(OCc2ccccc2)c(I)c1
inactive: dose: 100.0 mg/kg/injection, schedule: Q01DX001 (ip), vehicle: carboxymethylcellulose (CMC) 100 % of control | dose: 200.0 mg/kg/injection, schedule: Q01DX001 (ip), vehicle: carboxymethylcellulose (CMC) 94 % of control | dose: 400.0 mg/kg/injection, schedule: Q01DX001 (ip), vehicle: carboxymethylcellulose (CMC) 96 % of control

COC1=CC(=O)C=CC1=O
inactive: dose: 1.5 mg/kg/injection, schedule: Q01DX009 (ip), vehicle: saline 90 % of control | dose: 3.0 mg/kg/injection, schedule: Q01DX009 (ip), vehicle: saline 88 % of control | dose: 6.0 mg/kg/injection, schedule: Q01DX009 (ip), vehicle: saline 90 % of control

CCNC(=O)NC(=O)CN1CCOCC1
inactive: dose: 100.0 mg/kg/injection, schedule: Q04DX003 (ip), vehicle: saline sonified 100 % of control | dose: 200.0 mg/kg/injection, schedule: Q04DX003 (ip), vehicle: saline sonified 102 % of control | dose: 400.0 mg/kg/injection, schedule: Q04DX003 (ip), vehicle: saline sonified 100 % of control

C=CC1(O)CCCC1
inactive: [7] 100 % of control | [8] 107 % of control | [9] 96 % of control

CC(=O)c1ccc(NCC2N=C(N)N=C(N)N2c2ccccc2)cc1 (stereo not given)
inactive: [10] 97 % of control | [4] 98 % of control | [11] 96 % of control | [5] 90 % of control

C=CCN1C(=O)C(c2ccccc2)C2(CCN(C)CC2)C1=O (stereo not given)
inactive: dose: 25.0 mg/kg/injection, schedule: Q01DX001 (ip), vehicle: Klucel (hydroxypropylcellulose) (HPC) 108 % of control | dose: 50.0 mg/kg/injection, schedule: Q01DX001 (ip), vehicle: Klucel (hydroxypropylcellulose) (HPC) 108 % of control | dose: 100.0 mg/kg/injection, schedule: Q01DX001 (ip), vehicle: Klucel (hydroxypropylcellulose) (HPC) 98 % of control and 104 % of control

COc1ccc(-c2nnc(-c3ccc(OC)c(Cl)c3)nn2)cc1Cl
inactive: [8] 86 % of control | [9] 86 % of control

CCC[n+]1cccc(C#N)c1
inactive: dose: 37.5 mg/kg/injection, schedule: Q04DX003 (ip), vehicle: saline 97 % of control | dose: 75.0 mg/kg/injection, schedule: Q01DX001 (ip), vehicle: saline 94 % of control | dose: 75.0 mg/kg/injection, schedule: Q04DX003 (ip), vehicle: saline 100 % of control | dose: 150.0 mg/kg/injection, schedule: Q01DX001 (ip), vehicle: saline 103 % of control

CCN(CC)CCCC(Nc1c2ccc(Cl)cc2nc2ccc(OC)cc12)c1ccc(F)cc1 (stereo not given)
inactive: dose: 9.0 mg/kg/injection, schedule: Q01DX Z (ip), vehicle: methylcellulose (MC) 86 % of control | dose: 15.0 mg/kg/injection, schedule: Q01DX Z (ip), vehicle: methylcellulose (MC) 95 % of control | dose: 20.0 mg/kg/injection, schedule: Q01DX Z (ip), vehicle: methylcellulose (MC) 86 % of control | dose: 30.0 mg/kg/injection, schedule: Q01DX Z (ip), vehicle: methylcellulose (MC) 89 % of control

c1ccc(-c2nnnn2-c2ccccc2)cc1
inactive: dose: 100.0 mg/kg/injection, schedule: Q01DX001 (ip), vehicle: saline with Tween-80 102 % of control | dose: 200.0 mg/kg/injection, schedule: Q01DX001 (ip), vehicle: saline with Tween-80 98 % of control | dose: 400.0 mg/kg/injection, schedule: Q01DX001 (ip), vehicle: saline with Tween-80 105 % of control

CCN(CC)c1ccc(N=Nc2c(C)nc(N)nc2-c2ccccc2)cc1
inactive: dose: 5.0 mg/kg/injection, schedule: Q01DX001 (ip), vehicle: saline 103 % of control | dose: 10.0 mg/kg/injection, schedule: Q01DX001 (ip), vehicle: saline 96 % of control | dose: 20.0 mg/kg/injection, schedule: Q01DX001 (ip), vehicle: saline 91 % of control | dose: 40.0 mg/kg/injection, schedule: Q01DX001 (ip), vehicle: saline 92 % of control | dose: 80.0 mg/kg/injection, schedule: Q01DX001 (ip), vehicle: saline 87 % of control

Cc1cc(OC(=O)Nc2cccc(C(F)(F)F)c2)c(C)cc1Cl
inactive: [10] 106 % of control | [11] 118 % of control | [12] 102 % of control

CCCCNC(=O)Nc1ccccc1OCC
inactive: [10] 93 % of control | [4] 94 % of control | [11] 92 % of control | [5] 104 % of control | [12] 97 % of control | [6] 94 % of control
